#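 Values below derive from 48-hour exposures of cells grown in 96-well plates, with endpoints linearly interpolated between the two concentrations bracketing the appropriate inhibition level. At the GI50, growth is halved.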 The source made the active and inactive calls. Rule as the data show it: active = GI50 up to about 1.1 µM and inactive = higher.
# What was measured:
# Experiment in all cases: DTP human tumour cell line panel, 48 h
# BT-549 = system: BT-549
# OVCAR-4 = system: OVCAR-4
# HOP-92 = system: HOP-92
# CAKI-1 = system: CAKI-1
# SK-MEL-28 = system: SK-MEL-28
# MDA-N = system: MDA-N
# SW-620 = system: SW-620
# MCF7 = system: MCF7
# UACC-257 = system: UACC-257
# NCI-H522 = system: NCI-H522
# MOLT-4 = system: MOLT-4
# CCRF-CEM = system: CCRF-CEM
# SK-MEL-2 = system: SK-MEL-2
# HCT-15 = system: HCT-15
# LOX IMVI = system: LOX IMVI
# T47D = system: T47D
# SNB-19 = system: SNB-19
# COLO 205 = system: COLO 205
# SF-268 = system: SF-268
# KM12 = system: KM12
# IGROV-1 = system: IGROV-1
# NCI/ADR-RES = system: NCI/ADR-RES
# SK-MEL-5 = system: SK-MEL-5
# A498 = system: A498
# M14 = system: M14
# MDA-MB-231 = system: MDA-MB-231
# RXF 393 = system: RXF 393
# K562 = system: K562
# U-251 = system: U-251
# Malme-3M = system: Malme-3M
# OVCAR-8 = system: OVCAR-8
# A549 = system: A549
# NCI-H23 = system: NCI-H23
# EKVX = system: EKVX
# SK-OV-3 = system: SK-OV-3
# SF-295 = system: SF-295
# HCC 2998 = system: HCC 2998
# HCT-116 = system: HCT-116
# OVCAR-5 = system: OVCAR-5
# SR = system: SR
# HT-29 = system: HT-29
# MDA-MB-435 = system: MDA-MB-435
# TK-10 = system: TK-10
# SF-539 = system: SF-539
# DU-145 = system: DU-145
# HOP-62 = system: HOP-62
# UACC-62 = system: UACC-62
# UO-31 = system: UO-31
# PC-3 = system: PC-3
# OVCAR-3 = system: OVCAR-3
# 786-0 = system: 786-0
# RPMI-8226 = system: RPMI-8226
# NCI-H226 = system: NCI-H226
# ACHN = system: ACHN
# SN12C = system: SN12C
# NCI-H460 = system: NCI-H460
# HL-60 = system: HL-60
# SNB-75 = system: SNB-75
smiles,measurement,setting,value
CC(=O)c1cc(S(=O)(=O)c2ccc(O)c(C(C)=O)c2)ccc1O,GI50,BT-549,23.5 µM (inactive)
same,GI50,OVCAR-4,> 100 µM (inactive)
same,GI50,HOP-92,> 100 µM (inactive)
same,GI50,CAKI-1,> 100 µM (inactive)
same,GI50,SK-MEL-28,38.7 µM (inactive)
same,GI50,MDA-N,> 100 µM (inactive)
same,GI50,SW-620,> 100 µM (inactive)
same,GI50,MCF7,67.6 µM (inactive)
same,GI50,UACC-257,> 100 µM (inactive)
same,GI50,NCI-H522,> 100 µM (inactive)
same,GI50,MOLT-4,25.4 µM (inactive)
same,GI50,CCRF-CEM,34.4 µM (inactive)
same,GI50,SK-MEL-2,92 µM (inactive)
same,GI50,HCT-15,95.9 µM
same,GI50,LOX IMVI,70.3 µM (inactive)
same,GI50,T47D,51.8 µM (inactive)
same,GI50,SNB-19,68.5 µM (inactive)
same,GI50,COLO 205,> 100 µM (inactive)
same,GI50,SF-268,55.6 µM (inactive)
same,GI50,KM12,44.9 µM (inactive)
same,GI50,IGROV-1,> 100 µM (inactive)
same,GI50,NCI/ADR-RES,58.7 µM (inactive)
same,GI50,SK-MEL-5,> 100 µM (inactive)
same,GI50,A498,64.4 µM (inactive)
same,GI50,M14,67.9 µM (inactive)
same,GI50,MDA-MB-231,> 100 µM (inactive)
same,GI50,RXF 393,71.4 µM (inactive)
same,GI50,K562,79.4 µM (inactive)
same,GI50,U-251,31.6 µM (inactive)
same,GI50,Malme-3M,> 100 µM (inactive)
same,GI50,OVCAR-8,70 µM (inactive)
same,GI50,A549,49.4 µM (inactive)
same,GI50,NCI-H23,58.1 µM (inactive)
same,GI50,EKVX,> 100 µM (inactive)
same,GI50,SK-OV-3,66.7 µM (inactive)
same,GI50,SF-295,36.5 µM (inactive)
same,GI50,HCC 2998,58.2 µM (inactive)
same,GI50,HCT-116,92 µM (inactive)
same,GI50,OVCAR-5,> 100 µM (inactive)
same,GI50,SR,33.4 µM (inactive)
same,GI50,HT-29,> 100 µM (inactive)
same,GI50,MDA-MB-435,51.3 µM (inactive)
same,GI50,TK-10,52 µM (inactive)
same,GI50,SF-539,30.2 µM (inactive)
same,GI50,DU-145,> 100 µM (inactive)
same,GI50,HOP-62,> 100 µM (inactive)
same,GI50,UACC-62,18.4 µM (inactive)
same,GI50,UO-31,28.4 µM (inactive)
same,GI50,PC-3,75.5 µM (inactive)
same,GI50,OVCAR-3,> 100 µM (inactive)
same,GI50,786-0,98.2 µM (inactive)
same,GI50,RPMI-8226,44.4 µM (inactive)
same,GI50,NCI-H226,> 100 µM (inactive)
same,GI50,ACHN,91 µM (inactive)
same,GI50,SN12C,> 100 µM (inactive)
same,GI50,NCI-H460,84.9 µM (inactive)
COc1cc([C@@H]2c3cc4c(cc3[C@@H](Nc3ccc(/N=C\c5ccc(C(=O)O[C@@H](C(=O)O[C@H]6C[C@@]7(O)[C@@H](OC(=O)c8ccccc8)[C@@H]8[C@]9(OC(C)=O)CO[C@@H]9C[C@H](O)[C@@]8(C)C(=O)[C@H](OC(C)=O)C(=C6C)C7(C)C)[C@@H](NC(=O)c6ccccc6)c6ccccc6)cc5)cc3)[C@H]3COC(=O)[C@H]23)OCO4)cc(OC)c1O,GI50,BT-549,9.48 µM (inactive)
same,GI50,OVCAR-4,> 50 µM (inactive)
same,GI50,HOP-92,6.38 µM (inactive)
same,GI50,CAKI-1,0.916 µM (active)
same,GI50,SK-MEL-28,> 38.8 µM (inactive)
same,GI50,MDA-N,9.33 µM (inactive)
same,GI50,SW-620,8.73 µM (inactive)
same,GI50,MCF7,0.384 µM (active)
same,GI50,UACC-257,28.6 µM (inactive)
same,GI50,NCI-H522,> 21.3 µM (inactive)
same,GI50,MOLT-4,0.14 µM (active)
same,GI50,CCRF-CEM,0.544 µM (active)
same,GI50,SK-MEL-2,> 33.7 µM (inactive)
same,GI50,HCT-15,7.96 µM
same,GI50,LOX IMVI,3.49 µM (inactive)
same,GI50,T47D,11.4 µM (inactive)
same,GI50,SNB-19,2.48 µM (inactive)
same,GI50,HL-60,0.697 µM (active)
same,GI50,COLO 205,1.39 µM (inactive)
same,GI50,SF-268,4.34 µM (inactive)
same,GI50,KM12,15.8 µM (inactive)
same,GI50,IGROV-1,12.4 µM (inactive)
same,GI50,NCI/ADR-RES,> 45.8 µM (inactive)
same,GI50,SK-MEL-5,2.96 µM (inactive)
same,GI50,A498,0.196 µM (active)
same,GI50,M14,5.48 µM (inactive)
same,GI50,MDA-MB-231,20.7 µM (inactive)
same,GI50,RXF 393,6.12 µM (inactive)
same,GI50,K562,2.28 µM (inactive)
same,GI50,U-251,3.34 µM (inactive)
same,GI50,Malme-3M,> 50 µM (inactive)
same,GI50,OVCAR-8,6.15 µM (inactive)
same,GI50,A549,0.721 µM (active)
same,GI50,NCI-H23,2.75 µM (inactive)
same,GI50,EKVX,16.3 µM (inactive)
same,GI50,SK-OV-3,2.78 µM (inactive)
same,GI50,SF-295,1.99 µM (inactive)
same,GI50,HCC 2998,14.9 µM (inactive)
same,GI50,HCT-116,3.28 µM (inactive)
same,GI50,OVCAR-5,20.2 µM (inactive)
same,GI50,SR,0.0102 µM (active)
same,GI50,HT-29,9.04 µM (inactive)
same,GI50,MDA-MB-435,0.208 µM (active)
same,GI50,TK-10,10.4 µM (inactive)
same,GI50,SF-539,1.47 µM (inactive)
same,GI50,SNB-75,2.29 µM (inactive)
same,GI50,DU-145,2.68 µM (inactive)
same,GI50,HOP-62,2.93 µM (inactive)
same,GI50,UACC-62,4.26 µM (inactive)
same,GI50,PC-3,> 46.1 µM (inactive)
same,GI50,OVCAR-3,15.9 µM (inactive)
same,GI50,786-0,2.63 µM (inactive)
same,GI50,RPMI-8226,2.59 µM (inactive)
same,GI50,NCI-H226,1.57 µM (inactive)
same,GI50,ACHN,0.455 µM (active)
same,GI50,SN12C,2.88 µM (inactive)
same,GI50,NCI-H460,0.113 µM (active)
